The results in this text go back to paper PMC4300089, “Structure-Guided Design of Selective Epac1 and Epac2 Agonists” (PLoS Biology, 2015).

One assay concerns the target T1, Epac2^Δ280 (Mus musculus, UniProt Q9EQZ6).
T1 construct: made in house
T1 sequence (Q9EQZ6 281-993 isoform Q9EQZ6-3): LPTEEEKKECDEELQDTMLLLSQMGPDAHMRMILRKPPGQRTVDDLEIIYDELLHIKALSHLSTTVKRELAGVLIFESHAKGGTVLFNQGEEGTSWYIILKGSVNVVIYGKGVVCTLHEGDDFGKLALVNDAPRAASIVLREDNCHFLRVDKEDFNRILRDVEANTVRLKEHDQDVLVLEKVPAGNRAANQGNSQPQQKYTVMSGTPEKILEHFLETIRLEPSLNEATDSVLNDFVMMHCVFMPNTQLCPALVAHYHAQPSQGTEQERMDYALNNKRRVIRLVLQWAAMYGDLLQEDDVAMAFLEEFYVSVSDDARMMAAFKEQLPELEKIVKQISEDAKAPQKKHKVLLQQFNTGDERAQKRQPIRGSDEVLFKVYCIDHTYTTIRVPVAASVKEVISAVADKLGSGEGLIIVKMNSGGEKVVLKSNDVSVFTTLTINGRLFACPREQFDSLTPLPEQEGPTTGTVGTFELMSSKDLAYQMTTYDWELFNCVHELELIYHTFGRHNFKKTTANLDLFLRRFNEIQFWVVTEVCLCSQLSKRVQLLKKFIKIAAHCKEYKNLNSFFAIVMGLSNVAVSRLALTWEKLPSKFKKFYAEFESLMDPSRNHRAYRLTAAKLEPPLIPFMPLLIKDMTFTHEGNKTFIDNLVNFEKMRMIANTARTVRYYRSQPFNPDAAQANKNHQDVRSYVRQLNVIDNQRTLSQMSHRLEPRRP
Kind of assay: Epac activation assay (Rap1B•mGDP fluorescence nucleotide exchange), Epac2^Δ280. It counts as biochemical. Conditions: Epac2. Here is the method: Murine Epac2 was used as all previous structural studies were performed with it.
The activity of Epac was determined by a fluorescence assay. […] The fluorescence intensity of Rap1B•mGDP is approximately twice that of free mGDP, and thus, nucleotide exchange can be observed as a decay in fluorescence upon the addition of excess unlabeled GDP.
As for `O=C(Nc1ncnc2c1ncn2[C@@H]1O[C@@H]2COP(=O)(O)O[C@H]2[C@H]1O)c1ccccc1` [N-002, N^6-Bnz-cAMP], the “activation” value is listed as “inability to activate Epac2”.

The assay is the same for the next values; noted with them: Epac2^Δ280.
A word on the AC50: it is the midpoint of the concentration-response curve, whichever way the signal moves. Higher therefore signals weaker potency. `CO[C@@H]1[C@@H]2OP(=O)(O)OC[C@H]2O[C@H]1n1c([Se]Cc2ccccc2)nc2c(N)ncnc21` [D-013, 8-BnSe-2′-O-Me-cAMP]: the AC50 was 3.6 µM.

`CCCCCCNc1nc2c(N)ncnc2n1[C@@H]1O[C@@H]2COP(=O)(O)OC2[C@@H]1O` (stereo partly drawn) [L-009, 8-HA-cAMP] registered an AC50 of 2.5 µM.

As for `Nc1ncnc2c1nc(N1CCCC1)n2[C@@H]1O[C@@H]2COP(=O)(O)O[C@H]2[C@H]1O` [L-017, 8-Pyr-cAMP], the activity was half-maximal at 3.9 µM (AC50).

In turn, `Nc1ncnc2c1nc(NCCCCO)n2[C@@H]1O[C@@H]2COP(=O)(O)O[C@H]2[C@H]1O` [L-008, 8-OHBuA-cAMP] yielded an AC50 of 2.6 µM.

Consider `CCNc1nc2c(N)ncnc2n1[C@@H]1O[C@@H]2CO[P@](O)(=S)O[C@H]2[C@H]1O` [S-040, Sp-8-EA-cAMPS], for which the AC50 stood at 1.9 µM.

In turn, `CC(C)Nc1nc2c(N)ncnc2n1[C@@H]1O[C@@H]2CO[P@](O)(=S)O[C@H]2[C@H]1O` [S-050, Sp-8-iPrA-cAMPS] displayed an AC50 of 9 µM.

The compound `Nc1ncnc2c1nc(SCc1ccc(F)cc1)n2[C@@H]1O[C@@H]2CO[P@](O)(=S)O[C@H]2[C@H]1O` [S-280, Sp-8-pFBnT-cAMPS] came in with an AC50 of 0.11 µM. Compared with the last compound, the AC50 is about 82-fold lower.

The compound `CCN(CC)c1nc2c(N)ncnc2n1[C@@H]1O[C@@H]2CO[P@](O)(=S)O[C@H]2[C@H]1O` [S-090, Sp-8-DEA-cAMPS] showed an AC50 of 10 µM.

`COc1nc2c(N)ncnc2n1[C@@H]1O[C@@H]2CO[P@](O)(=S)O[C@H]2[C@H]1O` [S-140, Sp-8-MeO-cAMPS] returned an AC50 of 0.7 µM.

The compound `COc1nc2c(N)ncnc2n1[C@@H]1O[C@@H]2COP(=O)(O)O[C@H]2[C@H]1O` [L-022, 8-MeO-cAMP] displayed an AC50 of 0.6 µM. This AC50 and that of the compound before are within 1.5-fold of each other.

Compound `Nc1ncnc2c1nc(SCc1cccc([N+](=O)[O-])c1)n2[C@@H]1O[C@@H]2CO[P@](O)(=S)O[C@H]2[C@H]1O` [S-290, Sp-8-mNBnT-cAMPS] came in with an AC50 of 0.16 µM.

For 8-PIA-cAMP [L-019], the AC50 came out at 19 µM.

The compound `CNc1nc2c(N)ncnc2n1[C@@H]1O[C@@H]2CO[P@](O)(=S)O[C@H]2[C@H]1OC` [S-034, Sp-8-MeA-2′-O-Me-cAMPS] showed an AC50 of 20 µM. The AC50 values of the last two compounds are within 1.5-fold of each other.

`Nc1ncnc2c1nc(SCc1cccc(C(F)(F)F)c1)n2[C@@H]1O[C@@H]2CO[P@](O)(=S)O[C@H]2[C@H]1O` [S-300, Sp-8-mTFMeBnT-cAMPS] gave an AC50 of 0.14 µM.

In the case of `Nc1ncnc2c1nc(OCc1ccccc1)n2[C@@H]1O[C@@H]2CO[P@](O)(=S)O[C@H]2[C@H]1O` [S-150, Sp-8-BnO-cAMPS], the AC50 was found to be 1.3 µM.

Compound `CSc1nc2c(N)ncnc2n1[C@@H]1O[C@@H]2COP(=O)(O)O[C@H]2[C@H]1O` [L-024, 8-MeT-cAMP] displayed an AC50 of 0.14 µM.

The compound `Nc1ncnc2c1ncn2[C@@H]1O[C@@H]2COP(O)(=S)O[C@H]2[C@H]1O` (stereo partly shown) [R-000, Rp-cAMPS] returned an AC50 of 10 µM.

The compound `Nc1ncnc2c1nc(Cl)n2[C@@H]1O[C@@H]2CO[P@](O)(=S)O[C@H]2[C@H]1Cl` [S-021] gave an AC50 of 12 µM.

Compound `NCCCCCCNc1nc2c(N)ncnc2n1[C@@H]1O[C@@H]2COP(=O)(O)O[C@H]2[C@H]1O` [L-010, 8-AHA-cAMP] had an AC50 of 1.2 µM.

Take `CSc1nc2c(N)ncnc2n1[C@@H]1O[C@@H]2CO[P@](O)(=S)O[C@H]2[C@H]1O` [S-160, Sp-8-MeT-cAMPS]: the AC50 stood at 0.3 µM.

As for `O=C(Nc1ncnc2c1ncn2[C@@H]1O[C@@H]2COP(=O)(O)O[C@H]2[C@H]1O)c1ccccc1` [N-002, N^6-Bnz-cAMP], the AC50 came out at 2.9 µM.

The assay is the same for the next values; noted with them: Epac2^Δ280; maximal activity relative to cAMP.
For the compound `CO[C@@H]1[C@@H]2OP(=O)(O)OC[C@H]2O[C@H]1n1c([Se]Cc2ccccc2)nc2c(N)ncnc21` [D-013, 8-BnSe-2′-O-Me-cAMP], the Rel. kmax is listed as 2.3.

`CCCCCCNc1nc2c(N)ncnc2n1[C@@H]1O[C@@H]2COP(=O)(O)OC2[C@@H]1O` (stereo partly drawn) [L-009, 8-HA-cAMP] gave a Rel. kmax of 2.0.

Consider `Nc1ncnc2c1nc(N1CCCC1)n2[C@@H]1O[C@@H]2COP(=O)(O)O[C@H]2[C@H]1O` [L-017, 8-Pyr-cAMP], for which the Rel. kmax is 4.4.

`Nc1ncnc2c1nc(NCCCCO)n2[C@@H]1O[C@@H]2COP(=O)(O)O[C@H]2[C@H]1O` [L-008, 8-OHBuA-cAMP] registered a Rel. kmax of 1.6.

In turn, `CCNc1nc2c(N)ncnc2n1[C@@H]1O[C@@H]2CO[P@](O)(=S)O[C@H]2[C@H]1O` [S-040, Sp-8-EA-cAMPS] came in with a Rel. kmax of 5.4.

In turn, `CC(C)Nc1nc2c(N)ncnc2n1[C@@H]1O[C@@H]2CO[P@](O)(=S)O[C@H]2[C@H]1O` [S-050, Sp-8-iPrA-cAMPS] came in with a Rel. kmax of 1.4.

`Nc1ncnc2c1nc(SCc1ccc(F)cc1)n2[C@@H]1O[C@@H]2CO[P@](O)(=S)O[C@H]2[C@H]1O` [S-280, Sp-8-pFBnT-cAMPS] had a Rel. kmax of 4.9.

For the compound `CCN(CC)c1nc2c(N)ncnc2n1[C@@H]1O[C@@H]2CO[P@](O)(=S)O[C@H]2[C@H]1O` [S-090, Sp-8-DEA-cAMPS], the Rel. kmax amounted to 4.1.

`COc1nc2c(N)ncnc2n1[C@@H]1O[C@@H]2CO[P@](O)(=S)O[C@H]2[C@H]1O` [S-140, Sp-8-MeO-cAMPS] yielded a Rel. kmax of 7.3.

`COc1nc2c(N)ncnc2n1[C@@H]1O[C@@H]2COP(=O)(O)O[C@H]2[C@H]1O` [L-022, 8-MeO-cAMP] registered a Rel. kmax of 2.0.

As for `Nc1ncnc2c1nc(SCc1cccc([N+](=O)[O-])c1)n2[C@@H]1O[C@@H]2CO[P@](O)(=S)O[C@H]2[C@H]1O` [S-290, Sp-8-mNBnT-cAMPS], the Rel. kmax is recorded as 4.3.

8-PIA-cAMP [L-019]: the Rel. kmax is on record as 3.8.

For the compound `CNc1nc2c(N)ncnc2n1[C@@H]1O[C@@H]2CO[P@](O)(=S)O[C@H]2[C@H]1OC` [S-034, Sp-8-MeA-2′-O-Me-cAMPS], the Rel. kmax amounted to 0.7.

As to `Nc1ncnc2c1nc(SCc1cccc(C(F)(F)F)c1)n2[C@@H]1O[C@@H]2CO[P@](O)(=S)O[C@H]2[C@H]1O` [S-300, Sp-8-mTFMeBnT-cAMPS], the Rel. kmax is on record as 5.0.

In the case of `Nc1ncnc2c1nc(OCc1ccccc1)n2[C@@H]1O[C@@H]2CO[P@](O)(=S)O[C@H]2[C@H]1O` [S-150, Sp-8-BnO-cAMPS], the Rel. kmax came to 4.8.

As for `CSc1nc2c(N)ncnc2n1[C@@H]1O[C@@H]2COP(=O)(O)O[C@H]2[C@H]1O` [L-024, 8-MeT-cAMP], the Rel. kmax is reported as 2.0.

In the case of `Nc1ncnc2c1ncn2[C@@H]1O[C@@H]2COP(O)(=S)O[C@H]2[C@H]1O` (stereo partly shown) [R-000, Rp-cAMPS], the Rel. kmax is on record as 0.2.

Regarding `Nc1ncnc2c1nc(Cl)n2[C@@H]1O[C@@H]2CO[P@](O)(=S)O[C@H]2[C@H]1Cl` [S-021], the Rel. kmax is 0.5.

For the compound `NCCCCCCNc1nc2c(N)ncnc2n1[C@@H]1O[C@@H]2COP(=O)(O)O[C@H]2[C@H]1O` [L-010, 8-AHA-cAMP], the Rel. kmax is on record as 1.8.

Regarding `CSc1nc2c(N)ncnc2n1[C@@H]1O[C@@H]2CO[P@](O)(=S)O[C@H]2[C@H]1O` [S-160, Sp-8-MeT-cAMPS], the Rel. kmax came out at 7.4.

The compound `O=C(Nc1ncnc2c1ncn2[C@@H]1O[C@@H]2COP(=O)(O)O[C@H]2[C@H]1O)c1ccccc1` [N-002, N^6-Bnz-cAMP] gave a Rel. kmax of 0.1.
